Reference: patent US9221756B2, “Pyrrole derivatives” (priority 2011, dated 2015)

Target: pneumolysin (Streptococcus pneumoniae serotype 2, UniProt Q04IN8)
Assay: Inhibition of the haemolytic activity of pneumolysin (sheep erythrocytes)
Format: cell-based
Conditions: IC50, inhibition of pneumolysin-induced haemolysis of sheep erythrocytes; class symbols of Table 1

pneumolysin, sequence (Q04IN8 whole entry): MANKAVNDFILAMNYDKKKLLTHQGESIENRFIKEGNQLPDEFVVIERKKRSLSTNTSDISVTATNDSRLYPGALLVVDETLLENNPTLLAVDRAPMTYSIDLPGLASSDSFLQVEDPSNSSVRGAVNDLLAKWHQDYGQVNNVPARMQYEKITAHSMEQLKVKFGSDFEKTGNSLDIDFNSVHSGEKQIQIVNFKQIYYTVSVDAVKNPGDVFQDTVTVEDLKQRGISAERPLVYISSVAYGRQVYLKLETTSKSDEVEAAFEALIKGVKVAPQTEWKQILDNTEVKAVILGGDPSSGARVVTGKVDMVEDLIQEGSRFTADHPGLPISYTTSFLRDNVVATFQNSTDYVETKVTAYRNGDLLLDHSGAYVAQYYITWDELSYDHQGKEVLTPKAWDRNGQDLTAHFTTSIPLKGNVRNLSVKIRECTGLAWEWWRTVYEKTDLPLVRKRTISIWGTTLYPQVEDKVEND

`CCN(CC)C(=O)c1c(O)c(O)c(C(=O)N(CC)CC)n1-c1ccc(F)cc1` [UL1-001, N^2,N^2,N^5,N^5-tetraethyl-1-(4-fluorophenyl)-3,4-dihydroxy-1H-pyrrole-2,5-dicarboxamide] and `CCN(CC)C(=O)c1c(O)c(O)c(C(=O)N(CC)CC)n1-c1ccc(OC)cc1` [UL1-003, N^2,N^2,N^5,N^5-tetraethyl-3,4-dihydroxy-1-(4-methoxyphenyl)-1H-pyrrole-2,5-dicarboxamide] cannot be ordered by IC50: less than 10 µM for the first, less than 10 µM for the second.

`CCOc1ccc(-n2c(C(=O)N(CC)CC)c(O)c(O)c2C(=O)N(CC)CC)cc1` [UL1-002, 1-(4-ethoxyphenyl)-N^2,N^2,N^5,N^5-tetraethyl-3,4-dihydroxy-1H-pyrrole-2,5-dicarboxamide] and `CCOc1ccc(-n2c(C(=O)N(C)C)c(O)c(O)c2C(=O)N(C)C)cc1` [UL1-021, 1-(4-ethoxyphenyl)-3,4-dihydroxy-N^2,N^2,N^5,N^5-tetramethyl-1H-pyrrole-2,5-dicarboxamide] cannot be ordered by IC50: less than 10 µM for the first, less than 10 µM for the second.

`COc1ccc(-n2c(C(=O)N3CCOCC3)c(O)c(O)c2C(=O)N2CCOCC2)cc1` [UL1-004, (3,4-dihydroxy-1-(4-methoxyphenyl)-1H-pyrrole-2,5-diyl)bis(morpholinomethanone)] and `CCOc1ccc(-n2c(C(=O)N3CCOCC3)c(O)c(O)c2C(=O)N2CCOCC2)cc1` [UL1-022, (1-(4-ethoxyphenyl)-3,4-dihydroxy-1H-pyrrole-2,5-diyl)bis(morpholinomethanone)] cannot be ordered by IC50: less than 10 µM for the first, less than 10 µM for the second.

`COc1ccc(-n2c(C(=O)N(C)C)c(O)c(O)c2C(=O)N(C)C)cc1` [UL1-005, 3,4-dihydroxy-1-(4-methoxyphenyl)-N^2,N^2,N^5,N^5-tetramethyl-1H-pyrrole-2,5-dicarboxamide] and `CCNC(=O)c1c(O)c(O)c(C(=O)N(C)C)n1-c1ccc(OC)cc1` [UL1-024, N^2-ethyl-3,4-dihydroxy-1-(4-methoxyphenyl)-N^5,N^5-dimethyl-1H-pyrrole-2,5-dicarboxamide] cannot be ordered by IC50: less than 10 µM for the first, less than 10 µM for the second.

`O=C(c1c(O)c(O)c(C(=O)N2CCOCC2)n1-c1ccc(F)cc1)N1CCOCC1` [UL1-006, (1-(4-fluorophenyl)-3,4-dihydroxy-1H-pyrrole-2,5-diyl)bis(morpholinomethanone)] and `O=C(c1c(O)c(O)c(C(=O)N2CCOCC2)n1-c1ccc(C(F)(F)F)cc1)N1CCOCC1` [UL1-023, (3,4-dihydroxy-1-(4-(trifluoromethyl)phenyl)-1H-pyrrole-2,5-diyl)bis(morpholinomethanone)] cannot be ordered by IC50: less than 10 µM for the first, less than 10 µM for the second.

First: CN(C(=O)c1c(O)c(O)c(C(=O)N(C)c2ccccc2)n1-c1ccc(F)cc1)c1ccccc1 [UL1-007, 1-(4-fluorophenyl)-3,4-dihydroxy-N^2,N^5-dimethyl-N^2,N^5-diphenyl-1H-pyrrole-2,5-dicarboxamide]
Second: CN(Cc1ccccc1)C(=O)c1c(O)c(O)c(C(=O)N(C)Cc2ccccc2)n1-c1ccc(F)cc1 [UL1-014, N^2,N^5-dibenzyl-1-(4-fluorophenyl)-3,4-dihydroxy-N^2,N^5-dimethyl-1H-pyrrole-2,5-dicarboxamide]
The IC50 of the first is higher: 20 to 60 µM for the first, less than 10 µM for the second.

`CC(C)(C)OC(=O)N1CCN(C(=O)c2c(O)c(O)c(C(=O)N3CCN(C(=O)OC(C)(C)C)CC3)n2-c2ccc(F)cc2)CC1` [UL1-009, di-tert-butyl 4,4′-(1-(4-fluorophenyl)-3,4-dihydroxy-1H-pyrrole-2,5-dicarbonyl)bis(piperazine-1-carboxylate)] and `COc1ccc(-n2c(C(=O)N3CCN(C(=O)OC(C)(C)C)CC3)c(O)c(O)c2C(=O)N2CCN(C(=O)OC(C)(C)C)CC2)cc1` [UL1-015, di-tert-butyl 4,4′-(3,4-dihydroxy-1-(4-methoxyphenyl)-1H-pyrrole-2,5-dicarbonyl)bis(piperazine-1-carboxylate)] cannot be ordered by IC50: less than 10 µM for the first, less than 10 µM for the second.

`CC(=O)N1CCN(C(=O)c2c(O)c(O)c(C(=O)N3CCN(C(C)=O)CC3)n2-c2ccc(F)cc2)CC1` [UL1-010, 1,1′-(4,4′-(1-(4-fluorophenyl)-3,4-dihydroxy-1H-pyrrole-2,5-dicarbonyl)bis(piperazine-4,1-diyl))diethanone] and `COc1ccc(-n2c(C(=O)N3CCN(C(C)=O)CC3)c(O)c(O)c2C(=O)N2CCN(C(C)=O)CC2)cc1` [UL1-033, 1,1′-(4,4′-(3,4-dihydroxy-1-(4-methoxyphenyl)-1H-pyrrole-2,5-dicarbonyl)bis(piperazine-4,1-diyl))diethanone] cannot be ordered by IC50: less than 10 µM for the first, less than 10 µM for the second.

`O=C(c1c(O)c(O)c(C(=O)N2CCCCC2)n1-c1ccc(F)cc1)N1CCCCC1` [UL1-011, (1-(4-fluorophenyl)-3,4-dihydroxy-1H-pyrrole-2,5-diyl)bis(piperidin-1-ylmethanone)] and `COc1ccc(-n2c(C(=O)N3CCCCC3)c(O)c(O)c2C(=O)N2CCCCC2)cc1` [UL1-018, (3,4-dihydroxy-1-(4-methoxyphenyl)-1H-pyrrole-2,5-diyl)bis(piperidin-1-ylmethanone)] cannot be ordered by IC50: less than 10 µM for the first, less than 10 µM for the second.

`CC(C)N(C)C(=O)c1c(O)c(O)c(C(=O)N(C)C(C)C)n1-c1ccc(F)cc1` [UL1-013, 1-(4-fluorophenyl)-3,4-dihydroxy-N^2,N^5-diisopropyl-N^2,N^5-dimethyl-1H-pyrrole-2,5-dicarboxamide] and `CC(C)N(C(=O)c1c(O)c(O)c(C(=O)N(C(C)C)C(C)C)n1-c1ccc(F)cc1)C(C)C` [UL1-017, 1-(4-fluorophenyl)-3,4-dihydroxy-N^2,N^2,N^5,N^5-tetraisopropyl-1H-pyrrole-2,5-dicarboxamide] cannot be ordered by IC50: less than 10 µM for the first, less than 10 µM for the second.

`COc1ccc(-n2c(C(=O)N3CCNCC3)c(O)c(O)c2C(=O)N2CCNCC2)cc1` [UL1-016, (3,4-dihydroxy-1-(4-methoxyphenyl)-1H-pyrrole-2,5-diyl)bis(piperazin-1-ylmethanone)] and `COc1ccc(-n2c(C(=O)N(C)C)c(O)c(O)c2C(=O)N2CCN(C)CC2)cc1` [UL1-027, 3,4-dihydroxy-1-(4-methoxyphenyl)-N,N-dimethyl-5-(4-methylpiperazine-1-carbonyl)-1H-pyrrole-2-carboxamide] cannot be ordered by IC50: less than 10 µM for the first, less than 10 µM for the second.

`COc1ccccc1-n1c(C(=O)N(C)C)c(O)c(O)c1C(=O)N(C)C` [UL1-019, 3,4-dihydroxy-1-(2-methoxyphenyl)-N^2,N^2,N^5,N^5-tetramethyl-1H-pyrrole-2,5-dicarboxamide] and `CN(C)C(=O)c1c(O)c(O)c(C(=O)N(C)C)n1-c1ccc(C(F)(F)F)cc1` [UL1-028, 3,4-dihydroxy-N^2,N^2,N^5,N^5-tetramethyl-1-(4-(trifluoromethyl)phenyl)-1H-pyrrole-2,5-dicarboxamide] cannot be ordered by IC50: less than 10 µM for the first, less than 10 µM for the second.

`COc1ccccc1-n1c(C(=O)N2CCOCC2)c(O)c(O)c1C(=O)N1CCOCC1` [UL1-020, (3,4-dihydroxy-1-(2-methoxyphenyl)-1H-pyrrole-2,5-diyl)bis(morpholinomethanone)] and `COc1ccc(-n2c(C(=O)N(C)C)c(O)c(O)c2C(=O)N2CCOCC2)cc1` [UL1-026, 3,4-dihydroxy-1-(4-methoxyphenyl)-N,N-dimethyl-5-(morpholine-4-carbonyl)-1H-pyrrole-2-carboxamide] cannot be ordered by IC50: less than 10 µM for the first, less than 10 µM for the second.

`COc1ccc(-n2c(C(=O)N(C)C)c(O)c(O)c2C(=O)N2CCCCC2)cc1` [UL1-025, 3,4-dihydroxy-1-(4-methoxyphenyl)-N,N-dimethyl-5-(piperidine-1-carbonyl)-1H-pyrrole-2-carboxamide] and `COc1ccc(-n2c(C(=O)OC(C)C)c(O)c(O)c2C(=O)N(C)C)cc1` [UL1-035, isopropyl 5-(dimethylcarbamoyl)-3,4-dihydroxy-1-(4-methoxyphenyl)-1H-pyrrole-2-carboxylate] cannot be ordered by IC50: less than 10 µM for the first, less than 10 µM for the second.

`CN(C)C(=O)c1ccc(-n2c(C(=O)N(C)C)c(O)c(O)c2C(=O)N(C)C)cc1` [UL1-029, 1-(4-(dimethylcarbamoyl)phenyl)-3,4-dihydroxy-N^2,N^2,N^5,N^5-tetramethyl-1H-pyrrole-2,5-dicarboxamide] and `CCOC(=O)c1c(O)c(O)c(C(=O)N(C)C)n1-c1ccc(F)cc1` [UL1-032, ethyl 5-(dimethylcarbamoyl)-1-(4-fluorophenyl)-3,4-dihydroxy-1H-pyrrole-2-carboxylate] cannot be ordered by IC50: less than 10 µM for the first, less than 10 µM for the second.

First: COc1ccc(-n2c(C(=O)N(C)C)c(O)c(O)c2S(=O)(=O)NC(=O)OC(C)(C)C)cc1 [UL1-030, tert-butyl (5-(dimethylcarbamoyl)-3,4-dihydroxy-1-(4-methoxyphenyl)-1H-pyrrol-2-yl)sulfonylcarbamate]
Second: COc1ccc(-n2c(C(=O)OC(C)(C)C)c(O)c(O)c2C(=O)N(C)C)cc1 [UL1-036, tert-butyl 5-(dimethylcarbamoyl)-3,4-dihydroxy-1-(4-methoxyphenyl)-1H-pyrrole-2-carboxylate]
The IC50 of the first is higher: 20 to 60 µM for the first, less than 10 µM for the second.

First: COc1ccc(-n2c(C#N)c(O)c(O)c2C(=O)N(C)C)cc1 [UL1-031, 5-cyano-3,4-dihydroxy-1-(4-methoxyphenyl)-N,N-dimethyl-1H-pyrrole-2-carboxamide]
Second: COc1ccc(-n2c(C#N)c(O)c(O)c2C#N)cc1 [UL1-034, 3,4-dihydroxy-1-(4-methoxyphenyl)-1H-pyrrole-2,5-dicarbonitrile]
The IC50 of the first is lower: less than 10 µM for the first, 20 to 60 µM for the second.

`CCOC(=O)c1c(O)c(O)c(C(=O)N2CCN(C)CC2)n1-c1ccc(OC)cc1` [UL1-037, ethyl 3,4-dihydroxy-1-(4-methoxyphenyl)-5-(4-methylpiperazine-1-carbonyl)-1H-pyrrole-2-carboxylate] and `CCOC(=O)c1c(O)c(O)c(C(=O)N2CCOCC2)n1-c1ccc(OC)cc1` [UL1-040, ethyl 3,4-dihydroxy-1-(4-methoxyphenyl)-5-(morpholine-4-carbonyl)-1H-pyrrole-2-carboxylate] cannot be ordered by IC50: less than 10 µM for the first, less than 10 µM for the second.

First: CCCCN(CCCC)C(=O)c1c(O)c(O)c(C(=O)OCC)n1-c1ccc(OC)cc1 [UL1-038, ethyl 5-(dibutylcarbamoyl)-3,4-dihydroxy-1-(4-methoxyphenyl)-1H-pyrrole-2-carboxylate]
Second: CCOC(=O)c1c(O)c(O)c(C#N)n1-c1ccc(F)cc1 [UL1-039, ethyl 5-cyano-1-(4-fluorophenyl)-3,4-dihydroxy-1H-pyrrole-2-carboxylate]
The IC50 of the first is lower: less than 10 µM for the first, 20 to 60 µM for the second. The first is the more potent here.

Same assay, conditions: IC50, inhibition of pneumolysin-induced haemolysis of sheep erythrocytes; specific values

`COc1ccc(-n2c(C(=O)N3CCOCC3)c(O)c(O)c2C(=O)N2CCOCC2)cc1` [UL1-004, (3,4-dihydroxy-1-(4-methoxyphenyl)-1H-pyrrole-2,5-diyl)bis(morpholinomethanone)] and `COc1ccc(-n2c(C(=O)N(C)C)c(O)c(O)c2C(=O)N(C)C)cc1` [UL1-005, 3,4-dihydroxy-1-(4-methoxyphenyl)-N^2,N^2,N^5,N^5-tetramethyl-1H-pyrrole-2,5-dicarboxamide] are within 1.5-fold of each other in IC50: 0.17 µM for the first, 0.15 µM for the second.

`CCNC(=O)c1c(O)c(O)c(C(=O)N(C)C)n1-c1ccc(OC)cc1` [UL1-024, N^2-ethyl-3,4-dihydroxy-1-(4-methoxyphenyl)-N^5,N^5-dimethyl-1H-pyrrole-2,5-dicarboxamide] and `COc1ccc(-n2c(C(=O)OC(C)C)c(O)c(O)c2C(=O)N(C)C)cc1` [UL1-035, isopropyl 5-(dimethylcarbamoyl)-3,4-dihydroxy-1-(4-methoxyphenyl)-1H-pyrrole-2-carboxylate] are within 1.5-fold of each other in IC50: 0.182 µM for the first, 0.15 µM for the second.

Work on `CN(C)C(=O)c1c(O)c(O)c(C(=O)N(C)C)n1-c1ccc(C(F)(F)F)cc1` [UL1-028, 3,4-dihydroxy-N^2,N^2,N^5,N^5-tetramethyl-1-(4-(trifluoromethyl)phenyl)-1H-pyrrole-2,5-dicarboxamide] yielded an IC50 of 0.068 µM.
